Patent publication US20180085356A1, “METHOD OF TREATING DISEASE CHARACTERISED BY PROTEIN AGGREGATE DEPOSITION IN NEURONAL CELLS” (CHRONOS THERAPEUTICS LIMITED, priority 2013, published 2018)

Tests used:
[1] = tested on: C. elegans expressing YFP alone (Q0) in the body wall muscle; assay: C. elegans lifespan assay, YFP alone (Q0) strain; type: in vivo, Caenorhabditis elegans; conditions: p<0.05 vs. Q0 DMSO
Description: Tacrolimus was tested in a number of disease models using the nematode worm, Caenorhabditis elegans, in which aggregate-prone proteins associated with neurodegenerative diseases are expressed in certain cell types. The effect of tacrolimus was determined by measuring the lifespan of worms in the presence and absence of tacrolimus, using the following general methodology. All of the worms tested using these assays also contained, in addition to the transgene expressing the disease-related protein, a mutation in the bus-5 gene which confers drug-sensitivity.
C. elegans cultures were synchronised by incubating an asynchronous culture in basic sodium hypochlorite solution to kill everything but the bleach-resistant mature eggs. The eggs were added on to agar plates and then allowed to hatch and develop in the presence of the test compound (or vehicle) and bacterial food source. […] From this point on, each ageing population was inspected at regular intervals (e.g. daily) and viability assessed by counting the number of dead worms.
The cumulative number of dead worms for each population was used to generate a survival/viability plot to determine chronological lifespan (CLS). Survival was analysed using the Kaplan-Meier log-rank survival analysis method, using the Online Application for Survival (OASIS; see http://sbi.postech.ac.kr/oasis). […]

[2] = tested on: primary motor neuron (MN) cultures generated from rat spinal cord; assay: Motor neuron culture with Aβ1-42 insult: neurite network and survival (MAP-2 staining); type: cell-based; conditions: 24 hours after 20 μM Aβ1-42 insult, treated 1 hour before
Description: (§1) Primary motor neuron (MN) cultures generated from rat spinal cord were treated with 20 μM amyloid beta 1-42 peptide (Aβ1-42). […] This model was used to determine the effect of tacrolimus on TDP-43 toxicity in motor neurons. […] After permeabilisation with 0.1% saponin, one group of cells was incubated for 2 hours with a) mouse monoclonal anti-microtubule-associated-protein 2 (MAP-2) antibody, and b) rabbit polyclonal anti-TDP-43 antibody. The anti-MAP-2 antibody was used to determine MN survival (number of stained MN) and MN neurite length. The anti-TDP-43 antibody was used to examine extranuclear TDP-43: the area of extranuclear TDP-43 staining per MN was calculated by normalising to the number of MAP-2 positive cells.

TDP-43 = assay: Motor neuron culture with Aβ1-42 insult: extranuclear TDP-43 accumulation; type: cell-based, rat
Description: as §1

rat microglia = assay: Microglial cell culture model of inflammation (LPS challenge); type: cell-based; conditions: 100 ng/ml LPS overnight
Description: To investigate the effect of tacrolimus on microglial function, rat microglia were isolated as follows. A primary glial co-culture was isolated from P2 Sprague Dawley rat pups. The cells were cultured until confluency and then the microglia were isolated from the confluent glial cells through mechanical shaking. The isolated microglial cells were then subjected to inflammatory challenge by overnight exposure to 100 ng/ml lipopolysaccharide (LPS), in the presence or absence of tacrolimus. Glial cell activity was monitored by determining cell viability (Cell Counting Kit-8), the presence of reactive oxygen species (by quantitative fluorescence measurement in the supernatant/cell lysate), microvesicle shedding (by monitoring vesicle formation in cells loaded with Calcein-AM and then challenged with 1 mM ATP) and inflammatory cytokine production (by qPCR).

[3] = tested on: α-synuclein and phospho-Tau (p-Tau); assay: Immunohistochemistry for α-synuclein and p-Tau in SNc of 6-OHDA-lesioned rats; type: in vivo, rat; conditions: 1 mg/kg s.c., 3 months; p<0.05 vs. vehicle
Description: After 3 months, 10 randomly selected rats (5 from each group) were terminally anaesthetised. Blood and striatal tissue samples were taken and the posterior brain block containing the SNc was fixed by immersion in 4% paraformaldehyde in 0.1 M phosphate buffer (PB) for 24 hours. Following cryoprotection in 30% sucrose in 0.1M PB for 2-3 days and freezing the blocks in liquid nitrogen, samples were stored at −80° C. for α-synuclein and phospho-Tau (p-Tau) immunohistochemistry (IHC). This was repeated for 11 rats at 6 months (randomly selected from the surviving rats in both groups). Immunohistochemistry for α-synuclein and p-Tau was carried out. Brain samples containing the SNc region were double-immunostained for p-Tau (AT8) and α-synuclein. The number of positive cells for each single stain and the number of double-stained cells was manually counted for 6 sections per animal.

TNF-α = assay: Blood TNF-α levels in healthy human volunteers given tacrolimus capsule; type: in vivo
Description: A hard gelatine capsule was filled with the following composition:
One capsule as above containing 0.3 mg tacrolimus was administered daily to healthy human volunteers for three successive days. […] Similarly, no change in TNF-α levels occurred as a result of administering 0.6 mg daily of tacrolimus to healthy volunteers. The average trough level of tacrolimus (level after 24 hours of administration of each dose) observed was approximately 220 pg/ml.

ALS = conditions: Pong et al., Current Drug Targets 2003; cited from earlier work

For `C=CC[C@@H]1/C=C(\C)C[C@H](C)C[C@H](OC)[C@H]2O[C@@](O)(C(=O)C(=O)N3CCCC[C@H]3C(=O)O[C@H](/C(C)=C/[C@@H]3CC[C@@H](O)[C@H](OC)C3)[C@H](C)[C@@H](O)CC1=O)[C@H](C)C[C@@H]2OC` [tacrolimus, Tacrolimus], the lifespan [1] was “significantly increases lifespan”, the “motor neuron neurite network” value ([2]; p<0.05 all concentrations vs. Aβ) was “concentration-dependent increase” and the motor neuron survival ([2]; p<0.05 for 100 nM, 1 μM vs. Aβ) was “concentration-dependent increase”. The “increase of TDP-43:MN ratio in response to Aβ1-42 insult relative to unchallenged cells” value (TDP-43; 100 nM tacrolimus, 24 hours, control cells increased by 191%) was 35%, the “TDP-43 levels normalised to motor neuron number (TDP-43:MN ratio)” value (TDP-43; all 3 concentrations, 24 hours after Aβ1-42 insult) was “significantly reduced TDP-43 levels” and the “LPS-induced oxidative stress (reactive oxygen species)” value (rat microglia; p<0.01 all concentrations, concentration-dependent) was “significantly reduced”. For the same molecule, the “LPS-induced increase in metabolic activity of glial cells” value (rat microglia; p<0.01 for 100 nM and 1 μM) was “reduces this increase in a concentration-dependent manner”, the LPS-induced microvesicle shedding (rat microglia; p<0.01 for 1 μM, concentration-dependent) was “increase is reduced” and the “number of cells staining positively for p-Tau” value [3] was “lower counts of positive cells”. For the same molecule, the “number of cells staining positively for α-synuclein” value [3] was “lower counts of positive cells”, the “blood TNF-α levels” value (TNF-α; 0.3 mg capsule daily for three successive days) was “No significant changes” and the TNF-α levels (TNF-α; 0.6 mg daily) was “no change”. For the same molecule, the “efficacy in the treatment of ALS” value (ALS) was “ineffective”.
